Results published in patent US20040022788A1, “Compositions and methods for promoting or inhibiting angiogenesis” (priority 1998, published 2004).
Entries after “also recorded” stand apart in the source; their conditions may differ.

Assays:
HUVEC [1] = assay: HUVEC cell proliferation assay (CyQUANT); format: cell-based, human
Experimental: Cell Proliferation Assay. HUVEC were plated at a density of 5000 cells/well in media depleted of fetal calf serum (FCS) overnight to allow the cells to become quiescent. Fresh media containing 5% FCS, 10 ng/ml basic fibroblast growth factor (bFGF) and 3 ng/ml vascular endothelial growth factor (VEGF) were added to the wells along with angiostatin (1.0 μM), antibody directed against the recombinant human alpha-subunit of ATP synthase (1:10 dil), antibody directed against the recombinant human beta-subunit of ATP synthase (1:10 dil), pre-immune serum (1:10 dil) or cycloheximide ([…]). Cell density was measured after 24 hrs using CyQUANT Cell Proliferation Assay Kit (Molecular Probes) in a fluorometric plate reader (Molecular Devices). The absorbance values used to calculate the percent proliferation of the cells ranged from 1.24 or 1.00 for treated and 2.57 for untreated.

[2] = target: T1, purified bovine F1 ATP synthase (Bos taurus, UniProt P00829+P19483); assay: F1 activity assay (ATPase, coupled NADH oxidation at 340 nm); format: biochemical; settings: NaN3 2%
T1 construct: from tissue; host or cells: bovine heart mitochondria
Experimental: FIG. 12 is a bar graph showing the inhibition of purified F1 ATP synthase by angiostatin. Purified F1 ATP synthase activity was measured spectrophotometrically at λ=340 nm by coupling the production of ADP to the oxidation of NADH via the pyruvate kinase and lactate dehydrogenase reaction in which a decrease in the absorbance at λ=340 nm indicates active protein (dark six membered rings). […] Control antibodies had no effect on activity (light circles and squares). Representative data shown, n=3.
Purification of Bovine Heart F1 ATP Synthase and F1 Activity Assay. Fresh bovine heart mitochondria were obtained as previously described (23) and sonicated to yield sub-mitochondrial particles (24). The F1 portion was separated from membrane-bound FO by chloroform extraction. The aqueous layer was centrifuged at 105,000×g to remove particulate matter before purifying over an S300 gel filtration column. […] ATPase activity was measured spectrophotometrically by monitoring at λ=340 nm by coupling the production of ADP to the oxidation of NADH via pyruvate kinase and lactate dehydrogenase reactions as described in Zheng,& Ramirez, Biochem Biophys Res Commun 261(25):499-503 (1999).

[3] = target: T2, ATP synthase on the surface of HUVEC (Homo sapiens, UniProt P05496+P06576+P25705); assay: Cell-surface ATP generation by bioluminescent luciferase assay; format: cell-based; settings: oligomycin (0.1 mg/mL per method), 50 μM ADP
T2 construct: endogenous in cells; host or cells: HUVEC (primary human umbilical vein endothelial cells)
Experimental: Cell-surface ATP Assay. […] Cells were treated with (1 μM) angiostatin or (0.1 mg/mL) oligomycin for 1 hr at 37° C. All cells were then incubated with 0.1 Ci ^32P and 0.1 Ci ([…]) [2,8-^3H]-ADP (NEN Life Sciences) for 1 min. Supernatants were removed and centrifuged before assaying for ATP production by thin layer chromatography (TLC) or by firefly luciferase assay. ATP Generation by Bioluminescent Luciferase Assay. […] Louis, Mo.). In this firefly luciferin-luciferase reaction, only ATP is readily detected since the enzymatic reaction of firefly luciferase to oxidize luciferin is specific for ATP relative to all other nucleotides. Samples were injected with the ATP assay mixture and recordings were made in a LuminoskanRS (LabSystems, Franklin, Mass.) over a 10 s period. The response in a given sample or standard was quantified as area under the peak of the response and averaged for duplicate determinations. Data are expressed as picomoles of ATP produced per cell based on standards determined under the same conditions with each experiment. Angiostatin was prepared as described in Sottrup-Jensen, […]., Petersen, T. E. & Magnusson, S. (1978) Progress in Chemical Fibrinolysis and Thrombolysis (Raven Press, New York).

[4] = test system: angiostatin binding site on HUVEC; assay: Competition binding assay, 125I-labeled angiostatin on HUVEC; set-up: species or system human
Experimental: FIG. 6. Competition binding assay between angiostatin and the antibody against the alpha subunit of ATP synthase from E. coli. […] Cells were washed and remaining bound radioactivity was quantified by γ-counting. Non-specific binding was measured in the presence of excess unlabeled angiostatin and was subtracted from total binding. […] Competition studies were also performed simultaneously using rabbit pre-immune serum to account for non-specific inhibition. Error bars represent standard deviation. A 1 tailed homoscedastic t test was used for statistical analysis; p<0.10.
Binding Assays. Ligands were radioiodinated by using Iodobeads (Pierce), repurified on L-lysine-Sepharose, eluted with 100 mM ε-aminocaproic acid, and dialyzed in PBS, pH 7.0 before use in binding assays. […] Nonspecific binding was measured in the presence of excess unlabeled ligand.

[5] = test system: plasminogen binding sites on HUVEC; assay: Competition binding assay, 125I-labeled plasminogen on HUVEC; set-up: species or system human; settings: 1.0 μM 125I-labeled plasminogen; 25-fold molar excess of unlabeled plasminogen
Experimental: FIG. 2. Competition binding assay between plasminogen and angiostatin. HUVEC were plated at a density of 10,000 cells/well and incubated with 1.0 μM ^125I-labeled plasminogen in the presence of 100-fold molar excess of unlabeled angiostatin for 1 h at 4° C. Cells were washed and the remaining radioactivity was quantified by γ-counting.
(§1) Binding Assays. Ligands were radioiodinated by using Iodobeads (Pierce), repurified on L-lysine-Sepharose, eluted with 100 mM ε-aminocaproic acid, and dialyzed in PBS, pH 7.0 before use in binding assays. HUVEC were plated at a density of 5,000 or 10,000 cells/well and incubated with increasing concentrations of ^125I-labeled ligand in media containing 1% BSA for 1 h at 4° C. in 96-well plates. Wells were washed, and remaining bound radioactivity was quantified by using an LKB 1272 γ-radiation counter. Nonspecific binding was measured in the presence of excess unlabeled ligand.

[6] = target: T3, recombinant alpha subunit of human ATP synthase (Homo sapiens, UniProt P25705); assay: Ligand blot binding to the recombinant alpha subunit of ATP synthase
T3 construct: His tag; made in house; host or cells: E. coli BL21DE3
Experimental: FIGS. 7A-7E. Angiostatin binding to the recombinant alpha subunit of human ATP synthase. The alpha subunit of human ATP synthase was cloned and expressed in E. coli and purified using Qiagen's nickel-Sepharose protein purification system before dialyzing in phosphate buffered saline (PBS), pH 7.0. Recombinant protein was electrophoresed on 5-15% SDS-PAGE, electroblotted onto Immobilon™ membrane and incubated 18 h in 10 mM Tris-HCl, 0.15M NaCl, 0.05% NP40, pH 7.5 (TSN) containing ^125I-angiostatin. For competition studies, unlabeled ligand was added 4 h prior to radiolabeled ligand. Blots were washed in TSN buffer containing 0.05% Tween80 and bound radioactivity was quantified on a Molecular Dynamics PhosphorImager™.
Purification of the alpha-Subunit of ATP Synthase. Competent E. coli BL21DE3 were transformed with the pET24a(+) vector containing the alpha subunit, plated on 2× Bacto-yeast tryptone (YT) agarose, and grown overnight at 37° C. Twenty milliliters of 2× YT containing […] kanamycin was inoculated with one colony and grown overnight at 37° C. (200 rpm). A 1-liter culture (2× YT, […] kanamycin) was inoculated with 20 ml of the noninduced overnight culture and grown at 37° C. to an OD of 0.6 at a wavelength of 600 nm. Isopropyl […] was added to a final concentration of 1 mM and grown for an additional 3 h. Cells were harvested by centrifugation at 8,000 rpm for 10 min and stored overnight at −20° C. Lysates were prepared under denaturing conditions and batch-purified by using Qiagen Ni-NTA agarose. Resulting protein was dialyzed against PBS, pH 7.0 for use in all experiments.

HUVEC [7] = assay: Direct binding of 125I-labeled plasminogen or angiostatin to endothelial cells, Scatchard analysis; set-up: species or system human; settings: 125I-labeled ligand, 1 h at 4° C., read-out: apparent dissociation constant (Kd)
Experimental: FIGS. 1A and 1B. Direct binding assay and Scatchard analysis of plasminogen and angiostatin with endothelial cells. HUVEC were plated at a density of 10,000 cells/well and incubated with increasing concentrations of ^125I-labeled-plasminogen or angiostatin. FIG. 1A. ^125I-labeled plasminogen binding was concentration-dependent and saturable with an apparent dissociation constant ([…]) of 158 nM and 870,000 sites/cell. FIG. 1B. […] Error bars represent standard deviation.
as §1

`C[C@@H]1C[C@@H]([C@H](O)CC2CC(=O)NC(=O)C2)C(=O)[C@@H](C)C1` [Cycloheximide] was tested, and the inhibition at 10 µg/mL (HUVEC [1]; Homo sapiens, HUVEC, 24 h, read-out: Percent Inhibition (+/− S.E.M.) of HUVEC proliferation) was 100% and the “cellular morphology of treated cells” value (HUVEC [1]; compared with untreated cells, data not shown) was “obvious rounded morphology”.
In the case of `[N-]=[N+]=[N-].[Na+]` [NaN3, reference compound], the “inhibition of purified F1 ATPase activity” value [2] is reported as “completely inhibited”.
For `CC[C@H]1/C=C/C=C/C[C@@H](C)[C@H](O)[C@@](C)(O)C(=O)[C@@H](C)[C@H](O)[C@@H](C)C(=O)[C@@H](C)[C@H](O)[C@@H](C)/C=C/C(=O)O[C@@H]2[C@H](C)[C@H](CC1)O[C@]1(CC[C@H](C)[C@H](C[C@@H](C)O)O1)[C@H]2C` [Oligomycin, reference compound], the inhibition at 100 µg/mL ([3]; HUVEC, read-out: Percent Inhibition (+/− S.E.M.) of ATP generation) was 84% and the “Percent Inhibition (+/− S.E.M.) of ATP generation” value [3] was 83.5 +/− 4.5%.
`NCCCCCC(=O)O` [ε-aminocaproic acid, reference compound] was tested, and the “inhibition of 125I-labeled angiostatin binding” value ([4]; 100 mM ε-aminocaproic acid, data not shown) was “only slightly inhibited”.
“plasminogen: purified from human plasma by affinity chromatography, 92 kDa” was tested, and the “inhibition of 125I-labeled plasminogen binding” value [5] was “about 80%”, the “inhibition of 125I-labeled angiostatin binding to recombinant alpha subunit” value ([6]; 0.5 nM 125I-labeled angiostatin, 2500-fold molar excess of unlabeled plasminogen) was “not inhibited” and the “binding of 125I-labeled ligand to recombinant alpha subunit” value ([6]; ligand blot) was “did not bind”. For the same compound, the Kd (HUVEC [7]) was 158 nM and the “inhibition of 125I-labeled angiostatin binding” value ([4]; excess unlabeled plasminogen (2-fold molar excess in FIG. 2 legend)) was “little or no effect; also recorded: no inhibition”.
